Experiments:
[1] = system: AC133 positive neural progenitors; experiment: clonal generation of neurospheres from dissociated mouse postnatal forebrain; format: cell-based
[2] = system: AC133 and nestin expression in brain cortex; experiment: neural stem cell markers in brain after traumatic brain injury in mice treated with 2-AG (blots); format: in vivo
[3] = system: clonal neurospheres from postnatal rat forebrain; format: cell-based; settings: at 1 μM
[4] = i.p. 5 mg/kg daily, 3 hr, 24 hr and 5 days post injury
[5] = treatment post injury 5 mg/kg i.p. daily

CCCCC/C=C\C/C=C\C/C=C\C/C=C\CCCC(=O)OC(CO)CO [2-AG, 2-arachidonoyl glycerol]
clonal generation of neurospheres [1]: instigated clonal generation of neurospheres
AC133 in brain cortex after TBI (FIG. 6A) [2, 4]: up-regulation
Nestin in brain cortex after TBI (FIG. 6B) [2, 4]: up-regulation
expression of AC133 neural stem cells after traumatic brain injury (FIG. 10A) [2, 5]: increase of enhanced expression
expression of nestin in neural stem cells after traumatic brain injury (FIG. 10B) [2, 5]: increase of enhanced expression
clonal neurospheres from postnatal rat forebrain (FIG. 8A) [3]: abolition

lysophosphatidic acid [LPA]
clonal generation of neurospheres [1]: instigated clonal generation of mouse neurospheres

From patent US7611858B1, “Detection of cannabinoid receptor biomarkers and uses thereof” (University of Florida Research Foundation, Inc., priority 2004, dated 2009)
